This is an account of results in ChEMBL document CHEMBL1145498, “A systematic interaction map of validated kinase inhibitors with Ser/Thr kinases” (Proc Natl Acad Sci U S A, 2007).

Assay [1] has as its target Calcium/calmodulin-dependent protein kinase type 1D (Homo sapiens) (UniProt Q8IU85).
In assay [2] the target is Calcium/calmodulin-dependent protein kinase type 1G (Homo sapiens) (UniProt Q96NX5).
Assay [3] has as its target Cyclin-dependent kinase 6 (Homo sapiens) (UniProt Q00534).
For assay [4], the target named is Dual specificity protein kinase CLK1 (Homo sapiens) (UniProt P49759).
The target of assay [5] is Death-associated protein kinase 3 (Homo sapiens) (UniProt O43293).
Assay [6] addresses Dual specificity mitogen-activated protein kinase kinase 2 (Homo sapiens, UniProt P36507).
Assay [7] deals with Mitogen-activated protein kinase 3 (Homo sapiens, UniProt P27361).
Assay [8] deals with T1, Serine/threonine-protein kinase Nek2 (Homo sapiens) (UniProt P51955).
T1 sequence (whole entry): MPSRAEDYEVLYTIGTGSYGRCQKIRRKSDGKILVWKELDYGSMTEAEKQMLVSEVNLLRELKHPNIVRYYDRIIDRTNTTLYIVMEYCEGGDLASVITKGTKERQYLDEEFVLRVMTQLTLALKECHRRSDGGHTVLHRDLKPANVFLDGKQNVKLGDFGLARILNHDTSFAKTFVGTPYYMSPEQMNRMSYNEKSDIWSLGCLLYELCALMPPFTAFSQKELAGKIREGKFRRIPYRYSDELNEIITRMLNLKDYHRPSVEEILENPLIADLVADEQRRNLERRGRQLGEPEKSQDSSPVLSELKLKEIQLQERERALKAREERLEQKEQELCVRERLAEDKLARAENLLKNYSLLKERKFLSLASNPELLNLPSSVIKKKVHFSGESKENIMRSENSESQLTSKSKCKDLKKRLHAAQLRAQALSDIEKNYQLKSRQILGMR

Assay [9] addresses Serine/threonine-protein kinase Nek6 (Homo sapiens) (UniProt Q9HC98).
Assay [10] addresses Serine/threonine-protein kinase OSR1 (Homo sapiens) (UniProt O95747).
Assay [11] addresses T2, 3-phosphoinositide-dependent protein kinase 1 (Homo sapiens) (UniProt O15530).
T2 sequence (whole entry): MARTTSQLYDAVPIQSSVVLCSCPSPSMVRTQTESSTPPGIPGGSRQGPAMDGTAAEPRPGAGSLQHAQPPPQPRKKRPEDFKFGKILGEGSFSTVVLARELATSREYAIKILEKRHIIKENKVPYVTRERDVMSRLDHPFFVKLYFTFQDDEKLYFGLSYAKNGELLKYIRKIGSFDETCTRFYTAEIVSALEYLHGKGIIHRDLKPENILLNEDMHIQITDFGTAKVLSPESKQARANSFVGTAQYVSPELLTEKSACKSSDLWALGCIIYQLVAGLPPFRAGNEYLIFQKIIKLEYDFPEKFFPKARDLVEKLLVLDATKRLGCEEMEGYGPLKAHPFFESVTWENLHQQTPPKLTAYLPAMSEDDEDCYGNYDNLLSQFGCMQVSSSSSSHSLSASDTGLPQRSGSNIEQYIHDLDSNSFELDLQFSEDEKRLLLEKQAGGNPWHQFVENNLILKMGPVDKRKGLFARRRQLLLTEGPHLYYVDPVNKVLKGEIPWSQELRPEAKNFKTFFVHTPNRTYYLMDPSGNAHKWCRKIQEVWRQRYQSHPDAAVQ

The target of assay [12] is cAMP-dependent protein kinase catalytic subunit alpha (Homo sapiens) (UniProt P17612).
For assay [13], the target named is Serine/threonine-protein kinase RIO2 (Homo sapiens) (UniProt Q9BVS4).
The target in assay [14] is Ribosomal protein S6 kinase alpha-3 (Homo sapiens) (UniProt P51812).
For assay [15], the target named is STE20-like serine/threonine-protein kinase (Homo sapiens) (UniProt Q9H2G2).
Assay [16] has as its target Serine/threonine-protein kinase 16 (Homo sapiens) (UniProt O75716).
In assay [17] the target is Serine/threonine-protein kinase 38 (Homo sapiens) (UniProt Q15208).
Assay [18] has as its target T3, Serine/threonine-protein kinase 4 (Homo sapiens) (UniProt Q13043).
T3 sequence (whole entry): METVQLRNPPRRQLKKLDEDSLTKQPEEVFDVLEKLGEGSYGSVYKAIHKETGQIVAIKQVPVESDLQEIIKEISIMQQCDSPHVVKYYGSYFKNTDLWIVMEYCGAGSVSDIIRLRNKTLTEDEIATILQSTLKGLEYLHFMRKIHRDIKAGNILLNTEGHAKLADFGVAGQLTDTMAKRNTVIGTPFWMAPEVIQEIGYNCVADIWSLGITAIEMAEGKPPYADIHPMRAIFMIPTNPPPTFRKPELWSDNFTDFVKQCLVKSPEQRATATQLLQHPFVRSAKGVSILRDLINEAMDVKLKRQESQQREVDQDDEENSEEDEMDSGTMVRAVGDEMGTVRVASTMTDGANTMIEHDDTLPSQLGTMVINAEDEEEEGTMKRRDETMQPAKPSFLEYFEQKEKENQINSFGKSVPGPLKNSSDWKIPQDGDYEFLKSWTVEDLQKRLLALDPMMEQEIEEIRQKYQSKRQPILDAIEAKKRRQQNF

In assay [19] the target is T4, Lymphokine-activated killer T-cell-originated protein kinase (Homo sapiens) (UniProt Q96KB5).
T4 sequence (whole entry): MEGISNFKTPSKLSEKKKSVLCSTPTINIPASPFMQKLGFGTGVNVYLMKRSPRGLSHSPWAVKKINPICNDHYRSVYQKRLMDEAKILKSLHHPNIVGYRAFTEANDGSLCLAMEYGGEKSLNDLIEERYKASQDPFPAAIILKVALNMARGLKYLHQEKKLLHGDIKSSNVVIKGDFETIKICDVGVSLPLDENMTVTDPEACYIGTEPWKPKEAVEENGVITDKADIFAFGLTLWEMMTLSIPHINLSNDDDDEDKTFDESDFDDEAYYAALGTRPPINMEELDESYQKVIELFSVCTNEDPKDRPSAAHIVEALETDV

Assay [20] addresses Serine/threonine-protein kinase VRK2 (Homo sapiens) (UniProt Q86Y07).

Sequence of Death-associated protein kinase 3 (Homo sapiens) (O43293 whole entry, looked up): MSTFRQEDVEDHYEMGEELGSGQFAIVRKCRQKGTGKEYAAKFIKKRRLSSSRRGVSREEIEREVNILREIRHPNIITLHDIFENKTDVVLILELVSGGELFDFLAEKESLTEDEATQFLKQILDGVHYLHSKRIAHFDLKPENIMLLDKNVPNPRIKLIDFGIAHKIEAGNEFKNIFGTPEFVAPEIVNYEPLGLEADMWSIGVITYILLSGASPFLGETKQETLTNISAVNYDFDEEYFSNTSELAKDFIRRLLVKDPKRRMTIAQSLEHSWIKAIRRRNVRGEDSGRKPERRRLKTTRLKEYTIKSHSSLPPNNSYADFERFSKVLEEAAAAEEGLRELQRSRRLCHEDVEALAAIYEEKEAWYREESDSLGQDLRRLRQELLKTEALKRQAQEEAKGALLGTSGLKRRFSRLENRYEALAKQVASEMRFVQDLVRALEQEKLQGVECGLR
Sequence of Calcium/calmodulin-dependent protein kinase type 1D (Homo sapiens) (Q8IU85 whole entry, looked up): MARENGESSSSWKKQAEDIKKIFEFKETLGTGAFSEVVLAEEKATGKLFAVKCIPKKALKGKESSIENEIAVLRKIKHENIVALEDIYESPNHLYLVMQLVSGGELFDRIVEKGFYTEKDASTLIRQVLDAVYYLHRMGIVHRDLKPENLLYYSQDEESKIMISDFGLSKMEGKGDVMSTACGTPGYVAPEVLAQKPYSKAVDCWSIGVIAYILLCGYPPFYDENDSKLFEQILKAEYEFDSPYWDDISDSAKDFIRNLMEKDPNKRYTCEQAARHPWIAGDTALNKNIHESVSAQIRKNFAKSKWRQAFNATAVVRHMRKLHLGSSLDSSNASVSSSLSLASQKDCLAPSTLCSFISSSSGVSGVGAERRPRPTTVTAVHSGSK
Sequence of Serine/threonine-protein kinase OSR1 (Homo sapiens) (O95747 2-527 limits assumed): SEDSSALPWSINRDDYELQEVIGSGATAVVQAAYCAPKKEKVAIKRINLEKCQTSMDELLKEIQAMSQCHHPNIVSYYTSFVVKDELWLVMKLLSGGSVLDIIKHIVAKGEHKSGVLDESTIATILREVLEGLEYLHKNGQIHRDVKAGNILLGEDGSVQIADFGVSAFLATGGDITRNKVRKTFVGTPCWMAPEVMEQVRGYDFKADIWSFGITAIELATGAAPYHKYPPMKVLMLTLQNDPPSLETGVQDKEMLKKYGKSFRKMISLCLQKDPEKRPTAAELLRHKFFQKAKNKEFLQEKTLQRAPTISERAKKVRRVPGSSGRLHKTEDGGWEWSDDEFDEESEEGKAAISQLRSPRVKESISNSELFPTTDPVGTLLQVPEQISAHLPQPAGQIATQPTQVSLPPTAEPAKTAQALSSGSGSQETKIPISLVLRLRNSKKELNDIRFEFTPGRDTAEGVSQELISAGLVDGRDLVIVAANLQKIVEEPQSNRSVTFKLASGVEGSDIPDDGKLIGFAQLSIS
Sequence of Serine/threonine-protein kinase 16 (Homo sapiens) (O75716 whole entry): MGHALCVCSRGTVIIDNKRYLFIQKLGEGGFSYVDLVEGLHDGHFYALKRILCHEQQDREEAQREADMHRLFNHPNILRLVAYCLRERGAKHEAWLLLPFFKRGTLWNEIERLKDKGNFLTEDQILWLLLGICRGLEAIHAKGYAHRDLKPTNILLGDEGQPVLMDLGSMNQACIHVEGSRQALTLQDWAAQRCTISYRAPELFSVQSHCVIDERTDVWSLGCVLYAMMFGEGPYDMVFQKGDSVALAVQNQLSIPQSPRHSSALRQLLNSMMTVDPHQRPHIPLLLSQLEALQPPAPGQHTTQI
Sequence of Serine/threonine-protein kinase RIO2 (Homo sapiens) (Q9BVS4 whole entry, looked up): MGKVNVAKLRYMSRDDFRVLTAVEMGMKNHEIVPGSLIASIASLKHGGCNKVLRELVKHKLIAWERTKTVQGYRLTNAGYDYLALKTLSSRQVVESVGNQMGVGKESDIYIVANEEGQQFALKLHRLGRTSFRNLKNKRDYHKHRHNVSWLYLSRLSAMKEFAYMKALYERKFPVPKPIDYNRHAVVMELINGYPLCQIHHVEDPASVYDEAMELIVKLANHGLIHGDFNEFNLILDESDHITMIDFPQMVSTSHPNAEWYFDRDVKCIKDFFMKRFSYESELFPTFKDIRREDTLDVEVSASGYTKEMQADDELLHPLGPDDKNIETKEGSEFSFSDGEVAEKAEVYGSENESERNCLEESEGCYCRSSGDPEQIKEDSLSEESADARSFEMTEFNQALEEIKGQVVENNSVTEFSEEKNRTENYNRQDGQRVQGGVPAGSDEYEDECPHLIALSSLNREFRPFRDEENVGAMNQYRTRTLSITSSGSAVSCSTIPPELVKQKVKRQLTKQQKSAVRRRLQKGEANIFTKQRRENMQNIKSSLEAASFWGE
Sequence of Mitogen-activated protein kinase 3 (P27361 whole entry): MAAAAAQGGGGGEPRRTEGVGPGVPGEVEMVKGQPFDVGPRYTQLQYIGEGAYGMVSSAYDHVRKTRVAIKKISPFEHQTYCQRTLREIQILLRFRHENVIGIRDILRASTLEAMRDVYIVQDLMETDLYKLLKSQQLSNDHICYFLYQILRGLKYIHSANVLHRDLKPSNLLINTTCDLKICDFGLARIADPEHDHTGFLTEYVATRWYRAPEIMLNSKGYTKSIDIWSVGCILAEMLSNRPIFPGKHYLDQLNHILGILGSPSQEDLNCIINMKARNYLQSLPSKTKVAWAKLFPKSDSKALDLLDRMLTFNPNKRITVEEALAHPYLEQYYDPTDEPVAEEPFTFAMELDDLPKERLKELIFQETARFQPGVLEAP
Sequence of Dual specificity mitogen-activated protein kinase kinase 2 (P36507 whole entry): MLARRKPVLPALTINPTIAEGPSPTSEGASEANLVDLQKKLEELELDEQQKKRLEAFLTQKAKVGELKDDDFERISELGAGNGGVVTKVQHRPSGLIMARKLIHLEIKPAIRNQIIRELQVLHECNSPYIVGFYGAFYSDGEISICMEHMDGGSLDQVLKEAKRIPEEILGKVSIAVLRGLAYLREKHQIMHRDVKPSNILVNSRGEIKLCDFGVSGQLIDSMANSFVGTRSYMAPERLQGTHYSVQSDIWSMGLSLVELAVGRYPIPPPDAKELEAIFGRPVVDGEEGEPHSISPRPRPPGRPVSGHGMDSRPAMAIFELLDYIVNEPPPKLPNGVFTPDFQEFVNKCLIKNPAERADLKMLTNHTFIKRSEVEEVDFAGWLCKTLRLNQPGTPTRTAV
Sequence of Ribosomal protein S6 kinase alpha-3 (Homo sapiens) (P51812 whole entry): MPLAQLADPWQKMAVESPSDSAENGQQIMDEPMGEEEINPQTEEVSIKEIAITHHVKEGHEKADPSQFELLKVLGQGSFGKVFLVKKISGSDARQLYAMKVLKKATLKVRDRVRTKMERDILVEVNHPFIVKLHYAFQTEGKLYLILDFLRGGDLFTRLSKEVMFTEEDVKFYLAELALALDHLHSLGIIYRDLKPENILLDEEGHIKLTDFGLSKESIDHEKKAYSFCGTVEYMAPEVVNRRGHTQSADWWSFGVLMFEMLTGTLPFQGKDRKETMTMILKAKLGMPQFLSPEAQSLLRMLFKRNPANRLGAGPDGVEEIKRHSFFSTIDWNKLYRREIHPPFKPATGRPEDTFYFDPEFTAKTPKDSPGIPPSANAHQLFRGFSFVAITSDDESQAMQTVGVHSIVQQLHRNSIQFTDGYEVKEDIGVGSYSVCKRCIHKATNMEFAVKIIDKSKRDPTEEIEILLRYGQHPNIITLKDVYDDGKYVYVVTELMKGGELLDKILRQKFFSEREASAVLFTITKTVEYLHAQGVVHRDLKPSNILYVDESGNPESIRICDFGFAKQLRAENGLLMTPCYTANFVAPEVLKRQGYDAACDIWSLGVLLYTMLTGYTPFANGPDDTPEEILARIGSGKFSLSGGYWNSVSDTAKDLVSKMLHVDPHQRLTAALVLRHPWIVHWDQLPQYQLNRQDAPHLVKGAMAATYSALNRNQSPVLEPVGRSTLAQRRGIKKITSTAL
Sequence of Serine/threonine-protein kinase Nek6 (Homo sapiens) (Q9HC98 whole entry): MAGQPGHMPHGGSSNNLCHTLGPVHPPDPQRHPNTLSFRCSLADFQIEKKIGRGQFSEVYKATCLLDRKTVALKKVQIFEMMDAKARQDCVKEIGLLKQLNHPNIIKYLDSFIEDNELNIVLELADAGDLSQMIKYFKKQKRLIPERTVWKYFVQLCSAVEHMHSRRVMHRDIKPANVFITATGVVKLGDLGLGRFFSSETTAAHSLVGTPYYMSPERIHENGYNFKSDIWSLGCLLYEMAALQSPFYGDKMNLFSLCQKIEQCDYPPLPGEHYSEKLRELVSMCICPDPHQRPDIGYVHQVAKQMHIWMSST
Sequence of Serine/threonine-protein kinase VRK2 (Homo sapiens) (Q86Y07 whole entry): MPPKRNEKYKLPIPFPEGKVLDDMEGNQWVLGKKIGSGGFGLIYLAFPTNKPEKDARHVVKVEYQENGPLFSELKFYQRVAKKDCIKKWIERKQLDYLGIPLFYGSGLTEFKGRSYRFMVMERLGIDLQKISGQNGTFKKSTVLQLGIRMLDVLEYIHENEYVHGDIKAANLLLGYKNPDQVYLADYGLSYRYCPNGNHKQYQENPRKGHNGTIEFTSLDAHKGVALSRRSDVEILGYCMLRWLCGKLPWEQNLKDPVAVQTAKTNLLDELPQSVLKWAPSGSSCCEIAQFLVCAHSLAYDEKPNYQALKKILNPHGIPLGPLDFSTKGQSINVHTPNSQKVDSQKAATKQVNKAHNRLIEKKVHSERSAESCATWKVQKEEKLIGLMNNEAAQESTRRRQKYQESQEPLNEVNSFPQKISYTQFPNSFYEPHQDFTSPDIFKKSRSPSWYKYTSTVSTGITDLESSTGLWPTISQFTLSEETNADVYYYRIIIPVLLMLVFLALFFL
Sequence of Cyclin-dependent kinase 6 (Homo sapiens) (Q00534 whole entry): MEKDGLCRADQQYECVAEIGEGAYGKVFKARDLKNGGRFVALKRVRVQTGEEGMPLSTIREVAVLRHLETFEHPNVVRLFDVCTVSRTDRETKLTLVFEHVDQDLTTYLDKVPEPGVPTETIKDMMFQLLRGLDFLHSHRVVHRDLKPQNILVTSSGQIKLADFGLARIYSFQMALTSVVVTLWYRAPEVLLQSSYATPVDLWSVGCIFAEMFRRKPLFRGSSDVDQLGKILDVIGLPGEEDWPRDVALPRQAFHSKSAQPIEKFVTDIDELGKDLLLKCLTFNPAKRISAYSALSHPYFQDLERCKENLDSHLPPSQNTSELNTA

As to `NS(=O)(=O)c1ccc(Nc2nc(OCC3CCCCC3)c3nc[nH]c3n2)cc1`, the ΔTm (usually the shift of the melting midpoint relative to a reference) came to 0.8 °C in [1]; 1.6 °C in assay [2]; 4.9 °C in assay [3]; 3.9 °C in [4]; 0.8 °C in assay [5]; 0.8 °C in assay [6]. The ΔTm in [7] was 0.1 °C; in assay [8], 4.9 °C; in assay [9], 0.1 °C; in assay [10], 1 °C; in assay [11] it was -0.1 °C; in assay [12], -0.1 °C. For the same compound, the ΔTm in [13] was determined as 4 °C; in [14], 1.3 °C; in [15], 2.2 °C; in [16], 4.4 °C; in [17], 1.5 °C; in assay [18], 1.4 °C. Besides, the figures for the ΔTm in [19] and in assay [20] were 0.9 °C and 0.6 °C, respectively.
Turning to `Nc1cccc(-c2cc3c(Oc4cccc(O)c4)ncnc3[nH]2)c1`, the ΔTm in assay [1] amounted to 0.3 °C; in assay [2], 1 °C; in [3], 0.9 °C; in assay [4], 1.8 °C; in assay [5], 0.4 °C; in assay [6], 2.7 °C. The ΔTm was 0 °C in assay [7]; 2.6 °C in [8]; -1.3 °C in [9]; 1.7 °C in [10]; -0.1 °C in [11]; -0.6 °C in [12]. Moreover, the ΔTm in assay [13] was determined as 2.4 °C; in assay [14], 0.4 °C; in assay [15] it was 6.7 °C; in assay [16], 3.5 °C; in [17], 2.2 °C; in assay [18], 5.1 °C. Further, the ΔTm was found to be 0.6 °C in [19] and 0.5 °C in [20].
As for `O=C(O)c1cc(N(Cc2ccccc2O)Cc2cc(O)ccc2O)ccc1O` [LAVENDUSTIN A], the ΔTm was found to be 0.1 °C in assay [1]; 0.2 °C in assay [2]; 0.4 °C in [3]; 0.5 °C in assay [4]; 0.8 °C in assay [5]; 0.5 °C in [6]. The ΔTm is 0.3 °C in assay [7]; 1.3 °C in assay [8]; 0.4 °C in [9]; -0.1 °C in [10]; 0.6 °C in assay [11]; 1.2 °C in [12]. Further, the ΔTm is 0 °C in [13]; -0.2 °C in assay [14]; -0.7 °C in assay [15]; 2.6 °C in [16]; 0.2 °C in assay [17]; 0.5 °C in assay [18]. The figures for the ΔTm in assay [19] and in [20] were 0 °C and -0.6 °C, respectively.
As for `c1ccc(-c2n[nH]c3c2oc2ccccc23)cc1`, the ΔTm was 0.6 °C in assay [1]; 0.3 °C in assay [2]; 0.6 °C in [3]; 1.8 °C in [4]; -0.9 °C in assay [5]; -0.4 °C in [6]. For the same compound, the shift in melting temperature (ΔTm) is 0.3 °C in [7]; 0.1 °C in [8]; 0 °C in assay [9]; 0.8 °C in assay [10]; -0.5 °C in [11]; 2.8 °C in assay [12]. Further, the ΔTm in [13] is 2.9 °C; in [14], 0.8 °C; in [15], 1.6 °C; in assay [16] it was 6.8 °C; in assay [17] it was 1.4 °C; in assay [18] it was 4.3 °C. Also, the ΔTm in assay [19] is -0.2 °C; in assay [20], 0.6 °C.
As to `O=C1NC(=O)C(c2cn(CCCn3ccnc3)c3ccccc23)=C1Nc1ccccc1`, the ΔTm in [1] was 0.2 °C; in [2], 1 °C; in assay [3], 0.9 °C; in assay [4], 5.8 °C; in [5] it was 1.3 °C; in [6], 0.4 °C. Further, the ΔTm in assay [7] was -0.1 °C; in [8] it was 1.2 °C; in assay [9], -0.1 °C; in [10], 0.2 °C; in assay [11] it was 0.1 °C; in assay [12] it was 0.3 °C. Besides, the ΔTm is 6.1 °C in assay [13]; 0.5 °C in [14]; 4.8 °C in assay [15]; 0.6 °C in assay [16]; 0.7 °C in [17]; 0.8 °C in [18]. In addition, the figures for the ΔTm in assay [19] and in assay [20] were 0.8 °C and 0.4 °C, respectively.
Turning to `Cc1c2ccncc2c(C)c2c1[nH]c1ccccc12` [ELLIPTECINE], the ΔTm was 1.2 °C in assay [1]; 0.3 °C in assay [2]; 0.2 °C in assay [3]; 6.6 °C in [4]; 4.3 °C in assay [5]; 1 °C in assay [6]. Further, the ΔTm in [7] turned out to be 0.3 °C; in [8], 0.5 °C; in assay [9], 2.5 °C; in assay [10], 0.3 °C; in assay [11] it was 8.6 °C; in [12], 5.9 °C. For the same compound, the ΔTm turned out to be 3.8 °C in assay [13]; 3.7 °C in assay [14]; 4.1 °C in [15]; 10.7 °C in [16]; 1.1 °C in [17]; 4 °C in assay [18]. For the same compound, the ΔTm was 0.3 °C in assay [19] and -0.7 °C in [20].
Regarding `NC(=O)c1ccc2[nH]c(-c3ccc(Oc4ccc(Cl)cc4)cc3)nc2c1`, the ΔTm was 1.1 °C in assay [1]; 2.6 °C in assay [2]; 0.6 °C in assay [3]; 1.2 °C in assay [4]; 1.2 °C in [5]; -1.2 °C in [6]. Moreover, the ΔTm is -0.2 °C in assay [7]; 1.4 °C in assay [8]; 0.4 °C in assay [9]; 0.8 °C in assay [10]; -0.5 °C in assay [11]; 0.4 °C in assay [12]. The ΔTm is 2.4 °C in [13]; 0.7 °C in assay [14]; 0 °C in assay [15]; 4.7 °C in [16]; 1.7 °C in assay [17]; -0.2 °C in [18]. Also, the ΔTm in assay [19] turned out to be 0.9 °C; in assay [20], 0.5 °C.
